Source: article PMC9213561, “3-nitroimidazo[1,2-b]pyridazine as a novel scaffold for antiparasitics with sub-nanomolar anti-Giardia lamblia activity” (International Journal for Parasitology: Drugs and Drug …, 2022)
Counter-ions that a name gives are not always drawn. Like-named read-outs stand apart in the source and are kept apart here.

Columns and labels:
[1] = test system: G. lamblia trophozoites (WBC6); assay: Growth inhibition of G. lamblia trophozoites (WBC6), resazurin viability read-out; type: cell-based, Giardia lamblia; conditions: for IC50: Giardia duodenalis, WBC6 trophozoites, 72 h, anaerobic, mean ± standard error (95% CI, logit-log), quadruplicates, read-out: IC50 (nM) G.l.
Method: (§1) G. lamblia trophozoites (WBC6) were seeded into 96-well-plates in 0.2 mL Keister-medium containing 10^3 trophozoites per well in the presence of the compounds dissolved in dimethyl sulfoxide (DMSO, final concentration 0.25%) or with DMSO as a solvent control and incubated for 72 h at 37 °C in an anaerobic chamber (80% N2, 10% H2, 10% CO2). Then, plates were centrifuged (2 min, 1000 rpm), medium was removed, and cells were washed once with PBS containing 1 g/L glucose. Then, PBS-glucose containing 10 mg/L resazurin was added, and plates were incubated for up to 5 h at 37 °C. Fluorescence reading (ex 530 nm/em 590 nm) was performed at various time points, and the linear increase of fluorescence was used as a marker for cell viability. IC50 values were calculated using the logit-log algorithm and are given as mean values with 95%-confidence intervals ([Müller et al., 2020]; [Müller and Hemphill, 2013]; [Müller and Müller, 2019]). The assays for growth inhibition of T. b. brucei, T. cruzi, L. infantum, P. falciparum and MRC-5 (human lung fibroblasts MRC-5SV40) were previously described ([Blaazer et al., 2014]). PDE activity was determined exactly as described ([de Heuvel et al., 2021]; [Kunz et al., 2005], [2017b]). All assays were carried out in triplicates and no more than 20% substrate was hydrolyzed in all reactions. Compounds were dissolved in DMSO and the final DMSO concentration was 1% in all reaction mixes. Control reactions with DMSO alone were always included. Data were analyzed using the GraphPad Prism software package (v7.0, GraphPad, San Diego).
Figure S67. Representative drug susceptibility curves of G. lamblia WBC6. Trophozoites were grown anaerobically in the presence of various concentrations of 17 (red), 29 (blue) and the reference compound metronidazole (MET, black). After 72 h, growth of cells was monitored by a cell viability assay based on the reduction of resazurin to a pink fluorescent product. Measured fluorescence units were normalized to the DMSO control. Data points and error bars represent mean and standard error of 4 replicates.

[2] = test system: MRC-5 (human lung fibroblasts MRC-5SV40); assay: Cytotoxicity on MRC-5 cells; type: cell-based
Method: as §1, with “[…]-medium” for “Keister-medium”, “([[…],” for “([Müller et al., 2020]; [Müller and Hemphill, 2013]; [Müller and Müller,”

[3] = test system: Trypanosoma brucei brucei; assay: Growth inhibition of T. b. brucei; type: cell-based; conditions: mean ± standard deviation, n ≥ 2
Method: as §1

[4] = test system: Trypanosoma cruzi; assay: Growth inhibition of T. cruzi; type: cell-based; conditions: mean ± standard deviation, n ≥ 2
Method: as §1

[5] = test system: Leishmania infantum; assay: Growth inhibition of L. infantum; type: cell-based; conditions: mean ± standard deviation, n ≥ 2
Method: as §1

[6] = test system: Plasmodium falciparum; assay: Growth inhibition of P. falciparum; type: cell-based
Method: as §1, with “[…]-medium” for “Keister-medium”, “([[…],” for “([Müller et al., 2020]; [Müller and Hemphill, 2013]; [Müller and Müller,”

[7] = MRC5, mean ± standard deviation, n ≥ 2, read-out: IC50 (nM) MRC-5
[8] = mean ± standard deviation, n ≥ 2, read-out: IC50 (µM) P.f.
[9] = MRC5, Table S1, mean ± standard deviation, n ≥ 2, read-out: IC50 (µM) MRC-5

Row | Compound | IC50 [1] | IC50 [2, 7] | IC50 [3] | IC50 [4] | IC50 [5] | IC50 [6, 8] | IC50 [2, 9] | fold higher anti-Giardia activity than metronidazole ([1]; versus metronidazole IC50 = 0.8 μM) | IC50 ([6]; read-out: IC50 (µM) P.f.)
1 | COc1ccc(C2=NN(C3CCN(c4ccc5ncc([N+](=O)[O-])n5n4)CC3)C(=O)[C@H]3CC=CC[C@@H]23)cc1OC1CCCC1 (relative stereo) [Compound 12, cis-4-(3-(Cyclopentyloxy)-4-methoxyphenyl)-2-(1-(3-nitroimidazo[1,2-b]pyridazin-6-yl)piperidin-4-yl)-4a,5,8,8a-tetrahydrophthalazin-1(2H)-one] | 9.3 ± 0.6 nM | > 64000 nM | 2.1 µM | 2.2 µM | 25.9 ± 24.4 µM | 3 ± 1.9 µM | – | – | –
2 | COc1ccc(C2=NN(C3CCN(c4ccc5ncc([N+](=O)[O-])n5n4)CC3)C(=O)[C@H]3CC=CC[C@@H]23)cc1OCc1cccc([N+](=O)[O-])c1 (relative stereo) [Compound 13, cis-4-(4-Methoxy-3-((3-nitrobenzyl)oxy)phenyl)-2-(1-(3-nitroimidazo[1,2-b]pyridazin-6-yl)piperidin-4-yl)-4a,5,8,8a-tetrahydrophthalazin-1(2H)-one] | 1.2 ± 0.4 nM | > 64000 nM | > 64 µM | > 64 µM | 32.5 µM | 1.6 ± 0.7 µM | – | – | –
3 | COc1cccc(COc2cc(C3=NN(C4CCN(c5ccc6ncc([N+](=O)[O-])n6n5)CC4)C(=O)[C@H]4CC=CC[C@@H]34)ccc2OC)c1 (relative stereo) [Compound 14, cis-4-(4-Methoxy-3-((3-methoxybenzyl)oxy)phenyl)-2-(1-(3-nitroimidazo[1,2-b]pyridazin-6-yl)piperidin-4-yl)-4a,5,8,8a-tetrahydrophthalazin-1(2H)-one] | 1 ± 0.5 nM | > 64000 nM | > 64 µM | 31.8 ± 12.1 µM | 32.5 µM | 0.7 ± 0.5 µM | – | – | –
4 | COc1ccc(C2=NN(C3CCN(c4ccc5ncc([N+](=O)[O-])n5n4)CC3)C(=O)[C@H]3CC=CC[C@@H]23)cc1OCc1cccnc1 (relative stereo) [Compound 15, cis-4-(4-Methoxy-3-(pyridin-3-ylmethoxy)phenyl)-2-(1-(3-nitroimidazo[1,2-b]pyridazin-6-yl)piperidin-4-yl)-4a,5,8,8a-tetrahydrophthalazin-1(2H)-one] | 6.8 ± 1.5 nM | 15000 nM | 2.2 µM | 2.1 µM | 8.1 µM | 2.1 ± 0.8 µM | 14900 ± 11500 nM | – | –
5 | COc1ccccc1COc1cc(C2=NN(C3CCN(c4ccc5ncc([N+](=O)[O-])n5n4)CC3)C(=O)[C@H]3CC=CC[C@@H]23)ccc1OC (relative stereo) [Compound 16, cis-4-(4-Methoxy-3-((2-methoxybenzyl)oxy)phenyl)-2-(1-(3-nitroimidazo[1,2-b]pyridazin-6-yl)piperidin-4-yl)-4a,5,8,8a-tetrahydrophthalazin-1(2H)-one] | 2.8 ± 0.8 nM | 49000 nM | 1.4 ± 0.4 µM | 11.2 ± 7.9 µM | 30.6 ± 2.3 µM | 1.1 ± 0.5 µM | 48900 ± 21400 nM | – | –
6 | COc1ccc(C2=NN(C3CCN(c4ccc5ncc([N+](=O)[O-])n5n4)CC3)C(=O)[C@H]3CC=CC[C@@H]23)cc1OCc1ccccn1 (relative stereo) [Compound 17, cis-4-(4-Methoxy-3-(pyridin-2-ylmethoxy)phenyl)-2-(1-(3-nitroimidazo[1,2-b]pyridazin-6-yl)piperidin-4-yl)-4a,5,8,8a-tetrahydrophthalazin-1(2H)-one] | 0.5 ± 0.1 nM | > 64000 nM | 4.92 ± 1.6 µM | 2.1 ± 0.1 µM | 11.8 ± 7.5 µM | 2.3 ± 1.4 µM | – | > 1,000 fold | –
7 | CCN(CC)CCCC(C)Nc1ccnc2cc(Cl)ccc12 (stereo not drawn) [Chloroquine, chloroquine, reference compound] | – | – | – | – | – | – | – | – | 0.1 ± 0.03 µM
8 | CN(C)c1ccc2ncc([N+](=O)[O-])n2n1 [Compound 21, N,N-Dimethyl-3-nitroimidazo[1,2-b]pyridazin-6-amine] | 22 ± 3 nM | > 64000 nM | > 64 µM | > 64 µM | > 64 µM | > 64 µM | – | – | –
9 | O=[N+]([O-])c1cnc2ccc(N3CCCC3)nn12 [Compound 22, 3-Nitro-6-(pyrrolidin-1-yl)imidazo[1,2-b]pyridazine] | 2.3 ± 0.4 nM | > 64000 nM | > 64 µM | > 64 µM | > 64 µM | > 64 µM | – | – | –
10 | O=[N+]([O-])c1cnc2ccc(N3CCCCC3)nn12 [Compound 23, 3-Nitro-6-(piperidin-1-yl)imidazo[1,2-b]pyridazine] | 3.6 ± 0.8 nM | 28100 nM | > 64 µM | 32.3 ± 1.1 µM | > 64 µM | > 64 µM | – | – | –
11 | CN1CCN(c2ccc3ncc([N+](=O)[O-])n3n2)CC1 [Compound 24, 6-(4-Methylpiperazin-1-yl)-3-nitroimidazo[1,2-b]pyridazine formate] | 144 ± 31 nM | > 64000 nM | > 64 µM | 33.5 ± 1.1 µM | > 64 µM | > 64 µM | – | – | –
12 | O=[N+]([O-])c1cnc2ccc(N3CCC(N4CCCC4)CC3)nn12 [Compound 25, 3-Nitro-6-(4-(pyrrolidin-1-yl)piperidin-1-yl)imidazo[1,2-b]pyridazine formate] | 5.8 ± 0.9 nM | > 64000 nM | > 64 µM | 39.9 ± 3.7 µM | > 64 µM | > 64 µM | – | – | –
13 | O=[N+]([O-])c1cnc2ccc(N3CCC(c4ccccc4)CC3)nn12 [Compound 26, 3-Nitro-6-(4-phenylpiperidin-1-yl)imidazo[1,2-b]pyridazine] | 8.2 ± 1 nM | > 64000 nM | > 64 µM | > 64 µM | > 64 µM | > 64 µM | – | – | –
14 | O=[N+]([O-])c1cnc2ccc(N3CCN(c4ccccc4)CC3)nn12 [Compound 27, 3-Nitro-6-(4-phenylpiperazin-1-yl)imidazo[1,2-b]pyridazine] | 0.7 ± 0.1 nM | > 64000 nM | > 64 µM | > 64 µM | 35.3 ± 4 µM | > 64 µM | – | – | –
15 | O=[N+]([O-])c1cnc2ccc(N3CCC(Cc4ccccc4)CC3)nn12 [Compound 28, 6-(4-Benzylpiperidin-1-yl)-3-nitroimidazo[1,2-b]pyridazine] | 0.5 ± 0.1 nM | 7960 nM | 27.6 ± 4.2 µM | 8.6 ± 0.2 µM | > 64 µM | 23.4 ± 7.2 µM | 8000 ± 200 nM | – | –
16 | CCCCCCCCCCCCCCCCOP(=O)([O-])OCC[N+](C)(C)C [Miltefosine, miltefosine, reference compound] | – | – | – | – | 10.3 ± 1.3 µM | – | – | – | –
17 | Cc1ccc(C(=O)Nc2ccc(S(=O)(=O)O)c3cc(S(=O)(=O)O)cc(S(=O)(=O)O)c23)cc1NC(=O)c1cccc(NC(=O)Nc2cccc(C(=O)Nc3cc(C(=O)Nc4ccc(S(=O)(=O)O)c5cc(S(=O)(=O)O)cc(S(=O)(=O)O)c45)ccc3C)c2)c1 [Suramine, suramin, reference compound] | – | – | 0.05 ± 0.02 µM | – | – | – | – | – | –
18 | O=C(Cn1ccnc1[N+](=O)[O-])NCc1ccccc1 [benznidazole, reference compound] | – | – | – | 2.5 ± 0.4 µM | – | – | – | – | –
19 | Cc1ncc([N+](=O)[O-])n1CCO [metronidazole, reference compound] | 800 ± 100 nM | – | – | – | – | – | – | – | –
